The source of these data is article PMC8302598, “Rapid discovery of self-assembling peptides with one-bead one-compound peptide library” (Nature Communications, 2021).

“Also recorded” adds a separate entry of the source.

Holding throughout (type): cell-based
Data set [1] relates to HeLa cells. The data set can be described thus: Cell uptake pathway analysis (4 °C and endocytosis inhibitors). The note with it: for Cell uptake in the presence of amiloride and M-β-CD: 50 μM peptide; for Cell uptake in the presence of amiloride and M-β-CD / Cell uptake mechanism: amiloride 2 mM, M-β-CD 5 mM; for Cell uptake at 4 °C: FITC-labeled nano-assembly (3% labeled), 4 °C vs 37 °C; for Cell uptake mechanism: 50 μM, 37 or 4 °C, chlorpromazine 50 μM, CLSM, n=3. The method, then: Finally, we examined the biological effects and cellular distribution of the eight self-assembling peptides on HeLa cells. […] In order to observe the nanomaterials under fluorescent microscopy, each peptide preparation was spiked with 3% of the same peptide N-terminally labeled with FITC, and then added to HeLa cells at a final concentration of 40 μM. […] After 4 h of incubation with the peptide assemblies, the cells were observed under a fluorescent microscope (Figs. 4c, d and Supplementary 22). […] It is important to note that LDFPI nanoparticle was small (8 nm diameter) even after 4 h incubation. Its small size may in part explain its ability to pass through the nuclear pore complexes[32],[33]. […] To evaluate the cell uptake mechanism of peptide assemblies (YFTEF, ISDNL, and FGFDP) into the cytoplasm, we treated the cells at 4 °C or with various endocytosis inhibitors (Supplementary Fig. 23). […]
(§1) Supplementary Figure 23 . Cell uptake pathway analysis for FITC-labeled pentapeptide assemblies YFTEF, ISDNL and […]. a) CLSM images of HeLa cells incubated with pentapeptides (50 μ M ) at di fferent temperatures (37 or 4 °C) and in the presence of various endocytosis inhibitors, such as amiloride (2 mM), M-β-CD (5 mM), and chlorpromazine (50 μM). The scale bar is 10 μm. b) Relevant quantitative analysis of images from ‘a’. 3% of the assembled peptides was N-terminally labeled with FITC, E rror ba rs represent Standard Deviation (n=3). […]
(§2) To elucidate the cell uptake pathways of pentapeptides, we quantified the fluorescence intensity of the HeLa cells after incubation with FITC-labeled nano-assembly of YFTEF, ISDNL, FAGFT, FGFDP, at 37 and 4 °C, respectively (3% of the peptide assembly were N-terminally labeled with FITC for tracking). There were nearly no uptake of pentapeptides by HeLa cells at 4 °C, which is consistent with mechanism of cell uptake by endocytosis. We have also examined the effects of cell uptake by various endocytosis inhibitors: amiloride (2 mM, inhibitor of endocytosis), M-β-CD (5 mM, inhibitor of caveolae-dependent endocytosis), and chlorpromazine (50 μM, inhibitor of clathrin-dependent endocytosis).
(§3) (1 picture or pasted object on this page, not shown here)
Figure R11. Cell uptake pathway detection. a) CLSM images of HeLa cells incubated with pentapeptides (50 μM) at different temperatures (37 or 4 °C) and in the presence of various endocytosis inhibitors, such as amiloride (2 mM), M-13-CD (5 mM), and chlorpromazine(50 μM), respectively. The scale bar is 10 μm. b) Relevant quantitative analysis in ‘a’. […]

Data set [2] has as its system HeLa cells. The data set can be described thus: Cellular uptake and distribution of FITC-labeled peptide assemblies (fluorescence/confocal microscopy). The conditions noted are these: 40 μM (methods: 50 μM); for Cellular uptake: HeLa cells, 3% of peptide N-terminally FITC-labeled, 4 h incubation, fluorescence microscope; for Cellular distribution of peptide assemblies: live HeLa cells, 3% FITC-labeled peptide, 4 h, Lyso-Tracker Red, Hoechst. The protocol: Finally, we examined the biological effects and cellular distribution of the eight self-assembling peptides on HeLa cells. […] In order to observe the nanomaterials under fluorescent microscopy, each peptide preparation was spiked with 3% of the same peptide N-terminally labeled with FITC, and then added to HeLa cells at a final concentration of 40 μM. […] After 4 h of incubation with the peptide assemblies, the cells were observed under a fluorescent microscope (Figs. 4c, d and Supplementary 22). […] It is important to note that LDFPI nanoparticle was small (8 nm diameter) even after 4 h incubation. Its small size may in part explain its ability to pass through the nuclear pore complexes[32],[33]. […] To evaluate the cell uptake mechanism of peptide assemblies (YFTEF, ISDNL, and FGFDP) into the cytoplasm, we treated the cells at 4 °C or with various endocytosis inhibitors (Supplementary Fig. 23).
Hela cell line was purchased from cell culture center of Institute of Basic Medical Sciences, Chinese Academy of Medical Sciences (Beijing, China). Hela cells cultured with pentapeptide nanomaterials (50 μM) were imaged using a Zeiss LSM710 confocal laser scanning microscope (Jena, Germany). The Hela cells were seeded in complete DMEM in a humidified atmosphere with 5% CO2 and then cultured at 37 °C overnight. Then, 1 mL of serum-free fresh medium containing pentapeptide (50 μM) was used for replacing the medium, and the cells were cultured for 4 h and washed with PBS three times before being imaged using a Zeiss LSM710 confocal laser scanning microscope with a 40× objective lens. The cell lines had been authenticated utilizing short tandem repeat DNA profiling. All cells were tested negative for cross-contamination of other human cells and mycoplasma contamination.
Supplementary Figure 22. Confocal microscopy of HeLa cells after incubation with FITC-labeled pentapeptide assemblies (from left to right: FT ISD, IT SVV, Y FT E F, ISDNL , L D FP I, FAG FT, FG FDP, FFVD F ) for 4 h; peptide concentration used was 50 μM. 3% of the assembled peptides was N-terminally labeled with FITC.
as §1

The test system of data set [3] is HeLa cells. The data set can be described thus: Cell uptake efficiency by fluorescence of lysed cells. The note with it: HeLa cells incubated with peptides 4 h, fluorescence quantified. The protocol:
and FGFDP entered lysosome and then escaped. The ISDNL escaped in 4 h, and FGFDP escaped between 1-2 h. Both ISDNL and FGFDP had capability of lysosomal escape, which may be useful for gene or nucleic acid delivery, as implied by the reviewer.
Figure R10. a. Time-dependent CLSM images for monitoring and quantitatively analyzing HeLa cells incubated with 50 μM pentapeptide nano-assembly of YFTEF, ISDNL, and FGFDP, b. corresponding co-localization analysis of experiment shown in “a”.
To confirm how efficient the peptides (YFTEF, ISDNL, and FGFDP) enter living cells, HeLa cells were incubated with peptides for 4 h, the cells were then lysed and fluorescence quantified to calculate the […]
Table R2. Cell uptake efficiency of peptides. […]
as §2, §3

“FAGFT [self-assembling pentapeptide identified from OBOC library]”: in the data set on HeLa cells [1], the “Cell uptake in the presence of amiloride and M-β-CD” value was “significantly decreased”; the “Cell uptake at 4 °C” value is “nearly no uptake”. In addition, in the data set on HeLa cells [2], the Cellular uptake entry is on record as “Obvious cellular uptake” and the “Cellular distribution of peptide assemblies” value (shortened to “Cellular distribution”) was “mainly confine to the cytoplasm”.

For the substance “FFVDF [self-assembling pentapeptide identified from OBOC library, forms nanofibers]”, in the data set with HeLa cells [2], the “Cellular distribution” value was “formed aggregates outside the cell; also recorded: formed some fluorescent aggregates outside the cells”.

Take “FGFDP [self-assembling pentapeptide identified from OBOC library]”: in the data set with HeLa cells [1], the Cell uptake mechanism result was “both caveolae-dependent and clathrin-dependent endocytosis”; the “Cell uptake at 4 °C” value is on record as “nearly no uptake”. Besides, in the data set with HeLa cells [2], the Cellular uptake entry is “Obvious cellular uptake” and the “Cellular distribution” value was “distribute only to the cytoplasm, in granular forms”. This substance registered a Cell uptake efficiency with HeLa cells [3] of 4.8%.

“FTISD [self-assembling pentapeptide identified from OBOC library]”: in the data set with HeLa cells [2], the “Cellular distribution” value is “stained both the cell membrane and cytoplasm”.

As for “ISDNL [self-assembling pentapeptide identified from OBOC library]”, in the data set on HeLa cells [1], the “Cell uptake in the presence of amiloride and M-β-CD” value is recorded as “significantly decreased”; the Cell uptake mechanism result is “caveolae-dependent endocytosis and micropinocytosis”; the “Cell uptake at 4 °C” value is on record as “nearly no uptake”. Further, in the data set on HeLa cells [2], the Cellular uptake result is “Obvious cellular uptake” and the “Cellular distribution” value was “distributed inside the lysosomes throughout the cytoplasm; also recorded: distribute only to the cytoplasm, in granular forms”. The substance further returned a Cell uptake efficiency in the data set on HeLa cells [3] of 2.2%.

On to “ITSVV [self-assembling pentapeptide identified from OBOC library]”, for which, in the data set with HeLa cells [2], the “Cellular distribution” value is “localized on the cell membrane; also recorded: staining of the cell membrane and minor staining of the cytoplasm”.

Turning to “LDFPI [self-assembling pentapeptide identified from OBOC library]”, in the data set with HeLa cells [2], the Cellular uptake result is given as “Obvious cellular uptake”; the “Cellular distribution” value is “localized to the nucleus and perinuclear areas”.

Regarding “YFTEF [self-assembling pentapeptide identified from OBOC library]”, in the data set with HeLa cells [1], the Cell uptake mechanism result was “clathrin dependent endocytosis” and the “Cell uptake at 4 °C” value is “nearly no uptake”. Besides, in the data set on HeLa cells [2], the Cellular uptake entry is on record as “Obvious cellular uptake” and the “Cellular distribution” value is “distributed throughout the cytoplasm but not the nucleus”. This substance also had a Cell uptake efficiency with HeLa cells [3] of 3.9%.
